The term IC50 denotes the concentration needed to halve the response being measured. Low readings indicate greater potency, high ones weaker potency.

Each structure is given as a SMILES string. Where a name gives a salt, the structure may show the parent alone.

The assay deals with T1, human MGL from HeLa cells (Homo sapiens, UniProt Q99685).
T1 construct: combining endogenously expressed MGL from HeLa cells with test compounds; endogenous in cells; host or cells: HeLa cells / cell homogenates
T1 sequence (Q99685 1-303): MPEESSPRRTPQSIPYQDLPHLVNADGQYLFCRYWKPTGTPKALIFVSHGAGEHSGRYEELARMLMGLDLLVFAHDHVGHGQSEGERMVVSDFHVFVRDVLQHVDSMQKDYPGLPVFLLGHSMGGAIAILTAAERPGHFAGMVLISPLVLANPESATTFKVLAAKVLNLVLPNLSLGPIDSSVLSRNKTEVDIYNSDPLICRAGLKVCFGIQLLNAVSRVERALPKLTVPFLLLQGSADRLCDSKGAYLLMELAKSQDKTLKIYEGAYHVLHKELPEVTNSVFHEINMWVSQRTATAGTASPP
The assay can be described thus: In vitro MGL activity assay: [glycerol-1,3-3H]-oleyl glycerol cleavage by MGL from HeLa cells. Conditions: 300 nM [Glycerol-1,3-3H]-oleyl glycerol, one hour. Format: biochemical. An excerpt:
MGL is the predominant hydrolase in HeLa cells/cell homogenates.
In turn, `Cc1c(C(=O)N2CCc3c(nn(C)c3-c3cc(F)c(F)c(F)c3)[C@@H]2C)nc2ccccn12` [Example 398, [(7S)-2,7-Dimethyl-3-(3,4,5-trifluorophenyl)-5,7-dihydro-4H-pyrazolo[3,4-c]pyridin-6-yl]-(3-methylimidazo[1,2-a]pyridin-2-yl)methanone] came in with an IC50 of 0.248 µM.
For the compound `Cc1ccn2c(C(=O)N3CCc4c(nn(C)c4-c4cc(F)c(F)c(F)c4)[C@@H]3C)cnc2c1` [Example 399, [(7S)-2,7-Dimethyl-3-(3,4,5-trifluorophenyl)-5,7-dihydro-4H-pyrazolo[3,4-c]pyridin-6-yl]-(7-methylimidazo[1,2-a]pyridin-3-yl)methanone], the IC50 was 0.0632 µM.
Compound `Cc1ccc2ncc(C(=O)N3CCc4c(nn(C)c4-c4cc(F)c(F)c(F)c4)[C@@H]3C)n2c1` [Example 400, [(7S)-2,7-Dimethyl-3-(3,4,5-trifluorophenyl)-5,7-dihydro-4H-pyrazolo[3,4-c]pyridin-6-yl]-(6-methylimidazo[1,2-a]pyridin-3-yl)methanone] came in with an IC50 of 0.0523 µM.
For `Cc1cccc2ncc(C(=O)N3CCc4c(nn(C)c4-c4cc(F)c(F)c(F)c4)[C@@H]3C)n12` [Example 401, [(7S)-2,7-Dimethyl-3-(3,4,5-trifluorophenyl)-5,7-dihydro-4H-pyrazolo[3,4-c]pyridin-6-yl]-(5-methylimidazo[1,2-a]pyridin-3-yl)methanone] the value was 0.0145 µM.
For `Cc1nc2cc(F)ccn2c1C(=O)N1CCc2c(nn(C)c2-c2cc(F)c(F)c(F)c2)[C@@H]1C` [Example 402, [(7S)-2,7-Dimethyl-3-(3,4,5-trifluorophenyl)-5,7-dihydro-4H-pyrazolo[3,4-c]pyridin-6-yl]-(7-fluoro-2-methyl-imidazo[1,2-a]pyridin-3-yl)methanone] the value was 0.0216 µM.
In turn, `Cc1nc2c(C)cccn2c1C(=O)N1CCc2c(nn(C)c2-c2cc(F)c(F)c(F)c2)[C@@H]1C` [Example 403, (2,8-Dimethylimidazo[1,2-a]pyridin-3-yl)-[(7S)-2,7-dimethyl-3-(3,4,5-trifluorophenyl)-5,7-dihydro-4H-pyrazolo[3,4-c]pyridin-6-yl]methanone] yielded an IC50 of 0.0436 µM.
As to `Cc1ccn2c(C(=O)N3CCc4c(nn(C)c4-c4cc(F)c(F)c(F)c4)[C@@H]3C)c(C)nc2c1` [Example 404, (2,7-Dimethylimidazo[1,2-a]pyridin-3-yl)-[(7S)-2,7-dimethyl-3-(3,4,5-trifluorophenyl)-5,7-dihydro-4H-pyrazolo[3,4-c]pyridin-6-yl]methanone], the IC50 was found to be 0.0505 µM.
In the case of `Cc1ccc2nc(C)c(C(=O)N3CCc4c(nn(C)c4-c4cc(F)c(F)c(F)c4)[C@@H]3C)n2c1` [Example 405, (2,6-Dimethylimidazo[1,2-a]pyridin-3-yl)-[(7S)-2,7-dimethyl-3-(3,4,5-trifluorophenyl)-5,7-dihydro-4H-pyrazolo[3,4-c]pyridin-6-yl]methanone] it was 0.28 µM; in that of `COc1cc(Cl)cc(-c2c3c(nn2C)[C@H](C)N(C(=O)c2c(C)nc4ccc(F)cn24)CC3)c1` [Example 406, [(7S)-3-(3-Chloro-5-methoxy-phenyl)-2,7-dimethyl-5,7-dihydro-4H-pyrazolo[3,4-c]pyridin-6-yl]-(6-fluoro-2-methyl-imidazo[1,2-a]pyridin-3-yl)methanone], 0.0226 µM; in that of `Cc1nc2ccc(F)cn2c1C(=O)N1CCc2c(nn(C)c2-c2cc(F)c(F)c(F)c2)[C@@H]1C` [Example 407, [(7S)-2,7-Dimethyl-3-(3,4,5-trifluorophenyl)-5,7-dihydro-4H-pyrazolo[3,4-c]pyridin-6-yl]-(6-fluoro-2-methyl-imidazo[1,2-a]pyridin-3-yl)methanone], 0.0213 µM.
In the case of `Cc1nc2c(C)cc(F)cn2c1C(=O)N1CCc2c(nn(C)c2-c2cc(F)c(F)c(F)c2)[C@@H]1C` [Example 408, [(7S)-2,7-Dimethyl-3-(3,4,5-trifluorophenyl)-5,7-dihydro-4H-pyrazolo[3,4-c]pyridin-6-yl]-(6-fluoro-2,8-dimethyl-imidazo[1,2-a]pyridin-3-yl)methanone] it was 0.027 µM; in that of `Cc1cc2nc(C)c(C(=O)N3CCc4c(nn(C)c4-c4cc(F)c(F)c(F)c4)[C@@H]3C)n2cc1F` [Example 409, [(7S)-2,7-Dimethyl-3-(3,4,5-trifluorophenyl)-5,7-dihydro-4H-pyrazolo[3,4-c]pyridin-6-yl]-(6-fluoro-2,7-dimethyl-imidazo[1,2-a]pyridin-3-yl)methanone], 0.0766 µM.
For `Cc1nc2c(F)cc(F)cn2c1C(=O)N1CCc2c(nn(C)c2-c2cc(F)c(F)c(F)c2)[C@@H]1C` [Example 410, (6,8-Difluoro-2-methyl-imidazo[1,2-a]pyridin-3-yl)-[(7S)-2,7-dimethyl-3-(3,4,5-trifluorophenyl)-5,7-dihydro-4H-pyrazolo[3,4-c]pyridin-6-yl]methanone] the value was 0.173 µM; for `C[C@H]1c2nn(C)c(-c3cc(F)c(F)c(F)c3)c2CCN1C(=O)c1c(C(F)F)nc2ccccn12` [Example 412, [2-(Difluoromethyl)imidazo[1,2-a]pyridin-3-yl]-[(7S)-2,7-dimethyl-3-(3,4,5-trifluorophenyl)-5,7-dihydro-4H-pyrazolo[3,4-c]pyridin-6-yl]methanone], 0.0129 µM; for `C[C@H]1c2nn(C)c(-c3cc(F)c(F)c(F)c3)c2CCN1C(=O)c1c(C(F)(F)F)nc2ccccn12` [Example 413, [(7S)-2,7-Dimethyl-3-(3,4,5-trifluorophenyl)-5,7-dihydro-4H-pyrazolo[3,4-c]pyridin-6-yl]-[2-(trifluoromethyl)imidazo[1,2-a]pyridin-3-yl]methanone], 0.023 µM.
Turning to `Cc1cccc2nc(C(F)(F)F)c(C(=O)N3CCc4c(nn(C)c4-c4cc(F)c(F)c(F)c4)[C@@H]3C)n12` [Example 414, [(7S)-2,7-Dimethyl-3-(3,4,5-trifluorophenyl)-5,7-dihydro-4H-pyrazolo[3,4-c]pyridin-6-yl]-[5-methyl-2-(trifluoromethyl)imidazo[1,2-a]pyridin-3-yl]methanone], the IC50 was 0.0204 µM.
`C[C@H]1c2nn(C)c(-c3cc(F)c(F)c(F)c3)c2CCN1C(=O)c1nccn2cccc12` [Example 415, [(7S)-2,7-Dimethyl-3-(3,4,5-trifluorophenyl)-5,7-dihydro-4H-pyrazolo[3,4-c]pyridin-6-yl]-pyrrolo[1,2-a] pyrazin-1-yl-methanone] returned an IC50 of 0.0133 µM.
Take `C[C@H]1c2nn(C)c(-c3cc(F)c(F)c(F)c3)c2CCN1C(=O)c1ccn2ccncc12` [Example 416, [(7S)-2,7-Dimethyl-3-(3,4,5-trifluorophenyl)-5,7-dihydro-4H-pyrazolo[3,4-c]pyridin-6-yl]-pyrrolo[1,2-a]pyrazin-8-yl-methanone]: inhibition was half-maximal at 0.00718 µM (IC50).
In the case of `Cc1cc(C)n2ccc(C(=O)N3CCc4c(nn(C)c4-c4cc(F)c(F)c(F)c4)[C@@H]3C)c2n1` [Example 417, (2,4-Dimethylpyrrolo[1,2-a]pyrimidin-8-yl)-[(7S)-2,7-dimethyl-3-(3,4,5-trifluorophenyl)-5,7-dihydro-4H-pyrazolo[3,4-c]pyridin-6-yl] methanone] it was 0.126 µM; in that of `Cc1ncc2ccc(C(=O)N3CCc4c(nn(C)c4-c4cc(F)c(F)c(F)c4)[C@@H]3C)cn12` [Example 418, [(7S)-2,7-Dimethyl-3-(3,4,5-trifluorophenyl)-5,7-dihydro-4H-pyrazolo[3,4-c]pyridin-6-yl]-(3-methylimidazo[1,5-a]pyridin-6-yl)methanone], 0.0146 µM.
Consider `Cc1ccn2cnc(C(=O)N3CCc4c(nn(C)c4-c4cc(F)c(F)c(F)c4)[C@@H]3C)c2c1` [Example 419, [(7S)-2,7-Dimethyl-3-(3,4,5-trifluorophenyl)-5,7-dihydro-4H-pyrazolo[3,4-c]pyridin-6-yl]-(7-methylimidazo[1,5-a]pyridin-1-yl)methanone], for which half-maximal inhibition (IC50) required 0.192 µM.
For `C[C@H]1c2nn(C)c(-c3cc(F)c(F)c(F)c3)c2CCN1C(=O)c1ncn2ccccc12` [Example 420, [(7S)-2,7-Dimethyl-3-(3,4,5-trifluorophenyl)-5,7-dihydro-4H-pyrazolo[3,4-c]pyridin-6-yl]-imidazo[1,5-a]pyridin-1-yl-methanone] the value was 0.0591 µM; for `C[C@H]1c2nn(C)c(-c3cc(F)c(F)c(F)c3)c2CCN1C(=O)c1nc(C2CC2)n2ccccc12` [Example 421, (3-Cyclopropylimidazo[1,5-a]pyridin-1-yl)-[(7S)-2,7-dimethyl-3-(3,4,5-trifluorophenyl)-5,7-dihydro-4H-pyrazolo[3,4-c]pyridin-6-yl]methanone], 0.00666 µM.
In the case of `C[C@H]1c2nn(C)c(-c3cc(F)c(F)c(F)c3)c2CCN1C(=O)c1ccnc2[nH]ncc12` [Example 422, [(7S)-2,7-Dimethyl-3-(3,4,5-trifluorophenyl)-5,7-dihydro-4H-pyrazolo[3,4-c]pyridin-6-yl]-(1H-pyrazolo[3,4-b]pyridin-4-yl)methanone] it was 0.0459 µM.
In turn, `C[C@H]1c2nn(C)c(-c3cc(F)c(F)c(F)c3)c2CCN1C(=O)c1cnc2[nH]ncc2c1` [Example 423, [(7S)-2,7-Dimethyl-3-(3,4,5-trifluorophenyl)-5,7-dihydro-4H-pyrazolo[3,4-c]pyridin-6-yl]-(1H-pyrazolo[3,4-b]pyridin-5-yl)methanone.TFA salt] returned an IC50 of 0.041 µM.
Regarding `Cc1cc(C(=O)N2CCc3c(nn(C)c3-c3cc(F)c(F)c(F)c3)[C@@H]2C)c2cnn(C)c2n1` [Example 424, (1,6-Dimethylpyrazolo[3,4-b]pyridin-4-yl)-[(7S)-2,7-dimethyl-3-(3,4,5-trifluorophenyl)-5,7-dihydro-4H-pyrazolo[3,4-c]pyridin-6-yl]methanone], the IC50 amounted to 0.0107 µM.
